From patent US9416126B2, “Compounds inhibiting leucine-rich repeat kinase enzyme activity” (Merck Sharp & Dohme Corp., priority 2013, dated 2016)

Biological target: LRRK2(G2019S mutation, GST-LRRK2(amino acids 970-2527)) (Homo sapiens (Human), UniProt Q5S007, G2019S)
Experiment: LRRK2 Km ATP LanthaScreen Assay
Assay type: biochemical
Conditions: Km ATP (184 μM ATP solution), G2019S LRRK2, mean IC50
Description: Unless otherwise noted, all LRRK2 IC50 data presented in tables refers to the LRRK2 Km ATP LanthaScreen™ Assay that is described in the Biological Assay section.
The data presented for the 5 mM and Km ATP LanthaScreen™ Assay represents mean IC50 values based on several test results and may have reasonable. deviations depending on the specific conditions and reagents used. Reagents for the LRRK2 5 mM and Km ATP LanthaScreen™ Assay were purchased from Life Technologies Corporation.
LRRK2 Km ATP LanthaScreen™ Assay
a) 400 nl of a 1:2.15 serial dilution of test compound(98 μM top assay concentration) is spotted via Labcyte Echo to certain wells in a 384 well black, untreated plate. Control wells contain 400 nl of either DMSO or 400 nl of a known inhibitor in DMSO.
b) 10 μl of a 2.5 nM LRRK2(G2019S mutation, GST-LRRK2(amino acids 970-2527)) enzyme solution in 1× assay buffer(50 mM Tris pH 8.5, 10 mM MgCl2, 0.01% Brij-35, 1 mM EGTA, 2 mM DTT, 0.05 mM NaVO4) is added to all wells.
c) A 30 minute room temperature incubation is followed by addition of 10 μl of 800 nM fluorescein labeled LRRKtide peptide substrate and 184 μM ATP solution in 1× assay buffer to all wells.
d) After a 60 minute room temperature incubation, 20 μl of TR-FRET Dilution Buffer(Invitrogen PV3756B) containing 4 nM Tb-labeled anti-phospho LRRKtide antibody and 20 mM EDTA is added to all wells.
e) Plates are incubated at room temperature for 1 hour and read on an Envision™ multi-mode plate reader with LanthaScreen™ settings. Results are analysed using Assay Data Analyzer.

Sequence of LRRK2(G2019S mutation, GST-LRRK2(amino acids 970-2527)) (Q5S007 970-2527 G2019S): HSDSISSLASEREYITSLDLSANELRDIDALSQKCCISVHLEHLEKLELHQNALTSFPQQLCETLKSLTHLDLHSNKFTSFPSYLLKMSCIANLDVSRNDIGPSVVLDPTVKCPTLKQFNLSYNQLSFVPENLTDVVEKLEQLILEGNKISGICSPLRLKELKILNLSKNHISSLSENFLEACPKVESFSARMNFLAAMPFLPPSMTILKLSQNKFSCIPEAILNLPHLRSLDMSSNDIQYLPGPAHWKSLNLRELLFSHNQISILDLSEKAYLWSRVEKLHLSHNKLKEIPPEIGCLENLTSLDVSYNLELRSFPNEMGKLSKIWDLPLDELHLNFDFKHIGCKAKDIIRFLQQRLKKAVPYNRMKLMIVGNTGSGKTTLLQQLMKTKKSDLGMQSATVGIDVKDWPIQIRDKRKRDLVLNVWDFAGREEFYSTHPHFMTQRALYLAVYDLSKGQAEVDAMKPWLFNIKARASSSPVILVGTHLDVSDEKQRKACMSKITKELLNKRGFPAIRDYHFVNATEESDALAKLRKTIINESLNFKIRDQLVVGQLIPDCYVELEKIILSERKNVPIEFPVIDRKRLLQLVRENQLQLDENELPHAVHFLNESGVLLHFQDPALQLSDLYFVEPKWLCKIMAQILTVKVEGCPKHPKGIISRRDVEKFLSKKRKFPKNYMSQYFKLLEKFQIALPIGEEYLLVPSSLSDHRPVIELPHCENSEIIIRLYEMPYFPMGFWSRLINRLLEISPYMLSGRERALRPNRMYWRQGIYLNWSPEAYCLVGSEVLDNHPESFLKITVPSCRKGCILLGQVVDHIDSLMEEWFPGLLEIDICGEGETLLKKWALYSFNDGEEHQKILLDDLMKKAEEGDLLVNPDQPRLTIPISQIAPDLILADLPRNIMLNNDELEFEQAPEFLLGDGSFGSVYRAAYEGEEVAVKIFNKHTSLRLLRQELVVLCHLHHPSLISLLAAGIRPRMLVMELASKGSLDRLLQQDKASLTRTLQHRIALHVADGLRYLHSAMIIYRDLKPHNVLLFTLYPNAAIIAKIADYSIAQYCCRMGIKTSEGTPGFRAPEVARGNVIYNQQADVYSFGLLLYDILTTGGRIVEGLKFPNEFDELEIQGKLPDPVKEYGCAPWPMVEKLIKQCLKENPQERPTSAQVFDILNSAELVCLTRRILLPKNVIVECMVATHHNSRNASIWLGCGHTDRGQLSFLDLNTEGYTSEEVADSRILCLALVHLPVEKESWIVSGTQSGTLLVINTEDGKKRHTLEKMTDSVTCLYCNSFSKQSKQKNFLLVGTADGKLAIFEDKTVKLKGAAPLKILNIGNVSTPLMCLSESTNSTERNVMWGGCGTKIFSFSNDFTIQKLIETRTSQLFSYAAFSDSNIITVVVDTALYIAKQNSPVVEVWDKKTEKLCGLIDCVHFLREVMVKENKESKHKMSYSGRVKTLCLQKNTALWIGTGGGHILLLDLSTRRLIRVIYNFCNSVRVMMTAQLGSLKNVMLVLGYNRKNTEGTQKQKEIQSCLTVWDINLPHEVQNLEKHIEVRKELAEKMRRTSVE

Compound `CC(C)Oc1ccc2[nH]nc(-c3cc(N4CCc5oc(C6CC6)nc5C4)ncn3)c2c1` [Example J14] has an IC50 of 30.1 nM.
Compound `CC(C)Oc1ccc2[nH]nc(-c3cc(N4CCC(F)(F)CC4)ncn3)c2c1` [Example J15] has an IC50 of 20.2 nM.
`CC(C)Oc1ccc2[nH]nc(-c3cc(N4CC(S(C)(=O)=O)C4)ncn3)c2c1` [Example J16] showed an IC50 of 13.3 nM.
In the case of `CC(C)Oc1ccc2[nH]nc(-c3cc(N4CCN(C)CC4)ncn3)c2c1` [Example J17], the IC50 is reported as 5.4 nM.
In the case of `CC(C)Oc1ccc2[nH]nc(-c3cc(N4CC(F)(F)C4)ncn3)c2c1` [Example J18], the IC50 is reported as 24.3 nM.
Work on `CCc1nnc2n1CCN(c1cc(-c3n[nH]c4ccc(OC(C)C)cc34)ncn1)C2` [Example J19] yielded an IC50 of 8.6 nM.
With `CC(C)Oc1ccc2[nH]nc(-c3cc(N4CCc5nc(C6CC6)oc5C4)ncn3)c2c1` [Example J20] the IC50 was 43 nM.
Work on `CC(C)Oc1ccc2[nH]nc(-c3cc(N4CCN(c5nnc(C6CC6)o5)CC4)ncn3)c2c1` [Example J21] yielded an IC50 of 14 nM.
`Cc1noc(C2CN(c3cc(-c4n[nH]c5ccc(OC(C)C)cc45)ncn3)C2)n1` [Example J22] gave an IC50 of 9.3 nM.
For `CC(C)Oc1ccc2[nH]nc(-c3cc(N4CC(n5cnnc5)C4)ncn3)c2c1` [Example J23], the IC50 was 20.1 nM.
With `CC(C)Oc1ccc2[nH]nc(-c3cc(N4CCN(c5ccncn5)CC4)ncn3)c2c1` [Example J24] the IC50 was 15.8 nM.
With `CC(C)Oc1ccc2[nH]nc(-c3cc(N4CC[C@@H](F)C4)ncn3)c2c1` [Example J25] the IC50 was 8.7 nM.
`CC(C)Oc1ccc2[nH]nc(-c3cc(N4CC[C@H](F)C4)ncn3)c2c1` [Example J26] gave an IC50 of 9.5 nM.
With `CC(C)NC(=O)CN1CCN(c2cc(-c3n[nH]c4ccc(OC(C)C)cc34)ncn2)CC1` [Example K1] the IC50 was 5.1 nM.
`CC(C)Oc1ccc2[nH]nc(-c3cc(N4CCN(C(=O)c5ccco5)CC4)ncn3)c2c1` [Example K2] gave an IC50 of 8.7 nM.
`CCN1CCN(c2cc(-c3n[nH]c4ccc(OC(C)C)cc34)ncn2)CC1` [Example K3] gave an IC50 of 6 nM.
For `COC1CCCN(c2cc(-c3n[nH]c4ccc(OC(C)C)cc34)ncn2)C1` (stereo not shown) [Example K4], the IC50 was 12.7 nM.
`CC(=O)N1CCN(c2cc(-c3n[nH]c4ccc(OC(C)C)cc34)ncn2)CC1` [Example K5] showed an IC50 of 11.2 nM.
Compound `CC(C)Oc1ccc2[nH]nc(-c3cc(N4CCN(C(=O)C5CCCO5)CC4)ncn3)c2c1` (stereo not shown) [Example K6] has an IC50 of 58.1 nM.
Compound `CC(C)Oc1ccc2[nH]nc(-c3cc(N4CCN(c5ncccn5)CC4)ncn3)c2c1` [Example K7] has an IC50 of 11.8 nM.
`CC(C)Oc1ccc2[nH]nc(-c3cc(N4CCC(C#N)CC4)ncn3)c2c1` [Example K8] was tested, and the IC50 was 7.2 nM.
`COC(=O)N1CCN(c2cc(-c3n[nH]c4ccc(OC(C)C)cc34)ncn2)CC1` [Example K9] gave an IC50 of 10.2 nM.
`CC(C)Oc1ccc2[nH]nc(-c3cc(N4CCC(n5ccnc5)C4)ncn3)c2c1` (stereo not shown) [Example K11] was tested, and the IC50 was 11.3 nM.
With `CC(C)Oc1ccc2[nH]nc(-c3cc(N4CCC(O)(C(F)(F)F)CC4)ncn3)c2c1` [Example K12] the IC50 was 10.5 nM.
In the case of `CC(C)Oc1ccc2[nH]nc(-c3cc(N4CCCC(C(C)(C)O)C4)ncn3)c2c1` (stereo not shown) [Example K13], the IC50 is reported as 6.9 nM.
`CC(C)Oc1ccc2[nH]nc(-c3cc(N4CCC(n5cccn5)CC4)ncn3)c2c1` [Example K14] gave an IC50 of 15.3 nM.
`CC(C)Oc1ccc2[nH]nc(-c3cc(N4CCC(CF)C4)ncn3)c2c1` (stereo not shown) [Example K15] gave an IC50 of 6.9 nM.
`CC(C)Oc1ccc2[nH]nc(-c3cc(N4CCN(Cc5ccncc5)CC4)ncn3)c2c1` [Example K16] showed an IC50 of 8.2 nM.
`CC(C)Oc1ccc2[nH]nc(-c3cc(N4CCN(c5cnn(C)c5)CC4)ncn3)c2c1` [Example K17] was tested, and the IC50 was 5.4 nM.
For `CC(C)Oc1ccc2[nH]nc(-c3cc(N4CCC(C(C)(C)O)CC4)ncn3)c2c1` [Example K18], the IC50 was 5.4 nM.
With `CC(C)Oc1ccc2[nH]nc(-c3cc(N4CCn5nc(C6CC6)nc5C4)ncn3)c2c1` [Example K19] the IC50 was 18.2 nM.
For `CC(C)Oc1ccc2[nH]nc(-c3cc(N4CCC(F)(CO)CC4)ncn3)c2c1` [Example K20], the IC50 was 6.3 nM.
`CC(C)Oc1ccc2[nH]nc(-c3cc(N4CCN(c5nncs5)CC4)ncn3)c2c1` [Example K21] showed an IC50 of 17 nM.
`Cn1cc(-c2cc3c(-c4cc(N5CCn6ncnc6C5)ncn4)n[nH]c3cc2F)cn1` [Example L1] was tested, and the IC50 was 63.9 nM.
`Cn1cc(-c2cc3c(-c4cc(N5CC[C@H](CF)C5)ncn4)n[nH]c3cc2F)cn1` [Example L2] was tested, and the IC50 was 13.6 nM.
In the case of `Cn1cc(-c2cc3c(-c4cc(N5CCCC(F)(F)C5)ncn4)n[nH]c3cc2F)cn1` [Example L3], the IC50 is reported as 23.4 nM.
For `Cn1cc(-c2cc3c(-c4cc(N5CC[C@@H](CO)C5)ncn4)n[nH]c3cc2F)cn1` [Example L4], the IC50 was 36.8 nM.
Work on `Cn1cc(-c2cc3c(-c4cc(N5CC[C@H](CO)C5)ncn4)n[nH]c3cc2F)cn1` [Example L5] yielded an IC50 of 37 nM.
In the case of `Cn1cc(-c2cc3c(-c4cc(N5CCC(F)(F)C5)ncn4)n[nH]c3cc2F)cn1` [Example L6], the IC50 is reported as 70.9 nM.
`Cn1cc(-c2cc3c(-c4cc(N5CCCC(C)(O)C5)ncn4)n[nH]c3cc2F)cn1` (stereo not shown) [Example L7] was tested, and the IC50 was 67.5 nM.
`Cn1cc(-c2cc3c(-c4cc(N5CC[S+]([O-])CC5)ncn4)n[nH]c3cc2F)cn1` [Example L8] gave an IC50 of 131 nM.
With `CN1CCN(c2cc(-c3n[nH]c4cc(F)c(-c5cnn(C)c5)cc34)ncn2)CC1=O` [Example L9] the IC50 was 37.7 nM.
`Cn1cc(-c2cc3c(-c4cc(N5CCc6oncc6C5)ncn4)n[nH]c3cc2F)cn1` [Example L10] was tested, and the IC50 was 453 nM.
`Cn1cc(-c2cc3c(-c4cc(N5CCN(C6CC6)CC5)ncn4)n[nH]c3cc2F)cn1` [Example L11] was tested, and the IC50 was 17.7 nM.
With `C[C@H]1CN(c2cc(-c3n[nH]c4cc(F)c(-c5cnn(C)c5)cc34)ncn2)CCO1` [Example L12] the IC50 was 26.5 nM.
For `C[C@@H]1CN(c2cc(-c3n[nH]c4cc(F)c(-c5cnn(C)c5)cc34)ncn2)CCO1` [Example L13], the IC50 was 20.5 nM.
`Cn1cc(-c2cc3c(-c4cc(N5C[C@@H](F)[C@H](F)C5)ncn4)n[nH]c3cc2F)cn1` [Example L14] gave an IC50 of 29.9 nM.
`Cn1cc(-c2cc3c(-c4cc(N5CCCC6(CCO6)C5)ncn4)n[nH]c3cc2F)cn1` (stereo not shown) [Example L15] showed an IC50 of 398 nM.
`Cn1cc(-c2cc3c(-c4cc(N5CCC(n6cccn6)C5)ncn4)n[nH]c3cc2F)cn1` (stereo not shown) [Example L16] was tested, and the IC50 was 73.5 nM.
Compound `Cc1nc2c(o1)CCN(c1cc(-c3n[nH]c4cc(F)c(-c5cnn(C)c5)cc34)ncn1)C2` [Example L17] has an IC50 of 53.4 nM.
In the case of `Cn1cc(-c2cc3c(-c4cc(N5CCN6C(=O)OCC6C5)ncn4)n[nH]c3cc2F)cn1` (stereo not shown) [Example L18], the IC50 is reported as 64.2 nM.
In the case of `Cn1cc(-c2cc3c(-c4cc(N5CCC(F)(C#N)CC5)ncn4)n[nH]c3cc2F)cn1` [Example L19], the IC50 is reported as 39.4 nM.
Work on `CO[C@@H]1CN(c2cc(-c3n[nH]c4cc(F)c(-c5cnn(C)c5)cc34)ncn2)C[C@H]1O` [Example L20] yielded an IC50 of 36.2 nM.
`CN(C)[C@@H]1CN(c2cc(-c3n[nH]c4cc(F)c(-c5cnn(C)c5)cc34)ncn2)C[C@H]1O` [Example L21] was tested, and the IC50 was 67.1 nM.
`Cn1cc(-c2cc3c(-c4cc(N5CCS(=O)(=O)CC5)ncn4)n[nH]c3cc2F)cn1` [Example L22] was tested, and the IC50 was 146 nM.
Compound `Cn1cc(-c2cc3c(-c4cc(N5CCC(F)(CO)CC5)ncn4)n[nH]c3cc2F)cn1` [Example L23] has an IC50 of 15.3 nM.
For `CN(C)[C@@H]1CCN(c2cc(-c3n[nH]c4cc(F)c(-c5cnn(C)c5)cc34)ncn2)C1` [Example L24], the IC50 was 58 nM.
`Cn1cc(-c2cc3c(-c4cc(N5CCN(CCCO)CC5)ncn4)n[nH]c3cc2F)cn1` [Example L25] gave an IC50 of 12.6 nM.
Compound `Cn1cc(-c2cc3c(-c4cc(N5CCc6nccnc6C5)ncn4)n[nH]c3cc2F)cn1` [Example L26] has an IC50 of 11.1 nM.
`CO[C@@H]1CCN(c2cc(-c3n[nH]c4ccc(-c5cnn(C)c5)cc34)ncn2)C1` [Example M1] gave an IC50 of 4 nM.
`Cn1cc(-c2ccc3[nH]nc(-c4cc(N5CCCC(F)(F)C5)ncn4)c3c2)cn1` [Example M2] showed an IC50 of 2.2 nM.
Work on `Cn1cc(-c2ccc3[nH]nc(-c4cc(N5CCn6ncnc6C5)ncn4)c3c2)cn1` [Example M3] yielded an IC50 of 8.5 nM.
For `Cn1cc(-c2ccc3[nH]nc(-c4cc(N5CC[C@@H](CF)C5)ncn4)c3c2)cn1` [Example M4], the IC50 was 2.3 nM.
`Cn1cc(-c2ccc3[nH]nc(-c4cc(N5CC[C@H](CO)C5)ncn4)c3c2)cn1` [Example M5] gave an IC50 of 2.5 nM.
Work on `CC(O)C1CCN(c2cc(-c3n[nH]c4ccc(-c5cnn(C)c5)cc34)ncn2)C1` (stereo not shown) [Example M6] yielded an IC50 of 2.3 nM.
`Cn1cc(-c2ccc3[nH]nc(-c4cc(N5CC[C@@H](CO)C5)ncn4)c3c2)cn1` [Example M7] gave an IC50 of 2.9 nM.
With `Cn1cc(-c2ccc3[nH]nc(-c4cc(N5CCCC(C)(O)C5)ncn4)c3c2)cn1` (stereo not shown) [Example M8] the IC50 was 7.9 nM.
Work on `C[C@@H]1CN(c2cc(-c3n[nH]c4ccc(-c5cnn(C)c5)cc34)ncn2)CCO1` [Example M9] yielded an IC50 of 1.9 nM.
Compound `CO[C@H]1CCN(c2cc(-c3n[nH]c4ccc(-c5cnn(C)c5)cc34)ncn2)C1` [Example M10] has an IC50 of 2.6 nM.
Compound `Cn1cc(-c2ccc3[nH]nc(-c4cc(N5CC[S+]([O-])CC5)ncn4)c3c2)cn1` [Example M11] has an IC50 of 26.8 nM.
